What is called KD is the equilibrium constant for the complex coming apart. As usually defined, the ΔTm is the shift of the melting midpoint relative to a reference.

SMILES strings stand for the structures. Bounds are passed on as bounds.

Our source for the KD, ΔTm and binding values is paper PMC12445692 (2025).

Assay [1] deals with 5'-Cy5 KIT (DNA, G4) GGGAGGGAGGGCGCTGGGAGGAGGG
The assay can be described thus: fluorescence polarization, single-site fit. Particulars: K+ (20 mM potassium phosphate, 80 mM KCl); pH 7.4, room temperature, 20 nM DNA; ligand 0-2 μM. A general note: Polarisation of emitted light reports the rotation of a fluorescent probe.

Assay [2] concerns dsDNA (DNA, duplex) CAATCGGATCGAATTCGATCCGATTG
Briefly: differential scanning calorimetry. The settings on record: 100 μM DNA, DNA:ligand 1:4 (400 μM BTO-28), 1.0°C/min. (Differential scanning calorimetry records heat flow against a reference as temperature is scanned.)

The subject of assay [3] is Myc2345 (DNA, G4) TGAGGGTGGGTAGGGTGGGGAA
The assay can be described thus: 1H NMR titration and 15N HSQC.

Assay [4] has the same test system. The assay can be described thus: ESI mass spectrometry. The settings on record: K+ (20 mM potassium phosphate, 80 mM KCl); pH 7.4, 100 μM DNA.
For assay [5], the system named is 5'-Cy5 KRAS (DNA, G4) AGGGCGGTGTGGGAAGAGGGAAGAGGGGGAGGCAG
Briefly: fluorescence polarization, single-site fit. Particulars: K+ (20 mM potassium phosphate, 80 mM KCl); pH 7.4, room temperature, 20 nM DNA; ligand 0-2 μM.

Assay [6] concerns MYC G4 (Myc2345_T23) (DNA, G4) TGAGGGTGGGTAGGGTGGGTAA
Briefly: NMR solution structure. Particulars: K+ (2 mM potassium phosphate, 8 mM KCl); pH 7.4, 298 K.

The subject of assay [7] is 5'-Cy5 hTERT (DNA, G4) GGGTTAGGGTTAGGGTTAGGGTTAGGGTTAG
The assay can be described thus: fluorescence polarization, single-site fit. Particulars: K+ (20 mM potassium phosphate, 80 mM KCl); pH 7.4, room temperature, 20 nM DNA; ligand 0-2 μM.

For assay [8], the system named is MYC G4 (Myc2345_T23) (DNA, G4) TGAGGGTGGGTAGGGTGGGTAA
Briefly: ESI mass spectrometry. The settings on record: K+ (20 mM potassium phosphate, 80 mM KCl); pH 7.4, 100 μM DNA.

For assay [9], the system named is 5'-Cy5 dsDNA (DNA, duplex) CAATCGGATCGAATTCGATCCGATTG
Briefly: fluorescence polarization, single-site fit. The settings on record: K+ (20 mM potassium phosphate, 80 mM KCl); pH 7.4, room temperature, 20 nM DNA; ligand 0-2 μM.

Assay [10] concerns Myc2345 (DNA, G4) TGAGGGTGGGTAGGGTGGGGAA
The assay can be described thus: differential scanning calorimetry. Particulars: 100 μM DNA, DNA:ligand 1:4 (400 μM BTO-28), 1.0°C/min.

Assay [11] has as its system 5'-Cy5 MYC G4 (DNA, G4) TGAGGGTGGGTAGGGTGGGTAA
Briefly: fluorescence polarization, single-site fit. The settings on record: K+ (20 mM potassium phosphate, 80 mM KCl); pH 7.4, room temperature, 20 nM DNA; high-affinity site; Cy5 end not given, 5' inferred.

Assay [12] concerns MYC G4 (Myc2345_T23) (DNA, G4) TGAGGGTGGGTAGGGTGGGTAA
Briefly: differential scanning calorimetry. The settings on record: 100 μM DNA, DNA:ligand 1:4 (400 μM BTO-28), 1.0°C/min.

In assay [13] the test system is 5'-Cy5 RET (DNA, G4) GGGGCGGGGCGGGGCGGGGG
The assay can be described thus: fluorescence polarization, single-site fit. The settings on record: K+ (20 mM potassium phosphate, 80 mM KCl); pH 7.4, room temperature, 20 nM DNA; ligand 0-2 μM.

The test system of assay [14] is 3'-Cy5 MYC G4 (DNA, G4) TGAGGGTGGGTAGGGTGGGTAA
Briefly: fluorescence polarization, single-site fit. Particulars: K+ (20 mM potassium phosphate, 80 mM KCl); pH 7.4, room temperature, 20 nM DNA; weaker than 5' end.

In assay [15] the test system is NHE III1 (DNA, G4) TGGGGAGGGTGGGGAGGGTGGGGAAGG
Briefly: differential scanning calorimetry. Particulars: 100 μM DNA, DNA:ligand 1:4 (400 μM BTO-28), 1.0°C/min.

For the compound `Cc1cc(/C=C2\Sc3ccccc3N2CCCN2CCCC2)c2ccccc2[n+]1C`, the KD in [1] is 1246 ± 77.91 nM; in assay [5], 670.0 ± 35.09 nM; in assay [7], over 2000 nM; in assay [9] it was over 2000 nM; in assay [11] it was 6.8 nM; in [13], over 2000 nM. The KD in assay [14] is given as 89.80 ± 5.070 nM. Besides, the ΔTm is -4.3 °C in assay [2], 26.0 °C in [10] and 25.6 °C in assay [12]. For the same compound, the binding result in assay [3], in assay [4], in assay [6], in assay [8] and in [15] was “yes” in each case.
